Source: patent US9371319B2, “Pyrrolopyridineamino derivatives as MPS1 inhibitors” (priority 2011, dated 2016)

These compounds were tested against T1, full length MPS1 (Homo sapiens, UniProt P33981) (assay: biochemical).
T1 sequence (P33981 1-857): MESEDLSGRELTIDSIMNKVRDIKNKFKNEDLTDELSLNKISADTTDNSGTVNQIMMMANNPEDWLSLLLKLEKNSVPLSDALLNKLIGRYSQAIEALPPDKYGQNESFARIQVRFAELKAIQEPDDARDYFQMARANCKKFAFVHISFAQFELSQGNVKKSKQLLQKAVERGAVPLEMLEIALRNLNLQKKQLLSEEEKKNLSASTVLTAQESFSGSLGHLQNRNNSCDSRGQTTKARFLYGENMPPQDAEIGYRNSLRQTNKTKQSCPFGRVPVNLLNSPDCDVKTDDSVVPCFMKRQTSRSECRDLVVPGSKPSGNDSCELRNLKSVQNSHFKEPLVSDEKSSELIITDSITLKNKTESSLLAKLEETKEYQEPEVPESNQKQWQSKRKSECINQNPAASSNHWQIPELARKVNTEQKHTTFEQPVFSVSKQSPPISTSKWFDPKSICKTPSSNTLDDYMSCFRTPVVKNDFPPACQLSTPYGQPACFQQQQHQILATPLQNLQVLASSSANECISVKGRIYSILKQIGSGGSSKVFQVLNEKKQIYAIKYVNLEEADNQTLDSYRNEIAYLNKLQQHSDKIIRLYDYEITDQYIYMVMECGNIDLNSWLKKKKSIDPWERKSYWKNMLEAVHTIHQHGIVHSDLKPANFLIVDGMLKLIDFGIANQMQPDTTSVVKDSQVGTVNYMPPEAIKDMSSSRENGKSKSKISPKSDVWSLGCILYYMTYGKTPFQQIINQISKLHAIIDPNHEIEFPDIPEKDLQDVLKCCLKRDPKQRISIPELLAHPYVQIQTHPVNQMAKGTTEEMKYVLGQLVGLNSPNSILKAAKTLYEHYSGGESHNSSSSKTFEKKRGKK
Description: Measurement of Inhibition of MPS1 Kinase
(5 μM), ATP (10 μM), either DMSO (1% v/v) or the test compound (in the range 0.25 nM-100 μM in 1% DMSO) and assay buffer (50 mM HEPES (pH 7.0), 0.02% NaN3, 0.01% BSA, 0.1 mM Orthovandate, […], 1 μM DTT, Roche protease inhibitor). The reaction was carried out for 60 min at room temperature and stopped by the addition of buffer (10 μl) containing 20 mM EDTA, 0.05% (v/v) Brij-35, in 0.1M HEPES-buffered saline (Free acid, Sigma, UK). The plate was read on a Caliper EZ reader II (Caliper Life Sciences).
The % inhibition of the compounds is calculated relative to the means of selected control wells. […] The % inhibitions at each concentration are then fitted to a 4 parameter logistic fit: y=(a+((b−a)/(1+((c/x^d)))) where a=asym min, b=asym max, c=IC50 and d=hill coefficient

For `Cc1ncc(-c2ccc(Nc3cc4c(cn3)cc(-c3cnco3)n4C(=O)OC(C)(C)C)c(Cl)c2)n1C` [Example 107], which IC50 is on record?
Its IC50 is 0.002 µM.

For `Cn1cc(-c2cc3cnc(Nc4ccc(-c5ccn(C)n5)cc4Cl)cc3[nH]2)cn1` [Example 124, N-(2-Chloro-4-(1-methyl-1H-pyrazol-3-yl)phenyl)-2-(1-methyl-1H-pyrazol-4-yl)-1H-pyrrolo[3,2-c]pyridin-6-amine], which IC50 is on record?
The IC50 was 0.052 µM.

Which IC50 does the source give for `COc1ccccc1Nc1cc2c(cn1)cc(-c1cnco1)n2C(=O)OC(C)(C)C` [Example 96] here?
Its IC50 is 0.254 µM.

With `CN(C)C(=O)c1ccc(Nc2cc3c(cn2)cc(-c2cnn(C)c2)n3CC2CCCC2)c(Cl)c1` [Example 64, 3-Chloro-4-(1-(cyclopentylmethyl)-2-(1-methyl-1H-pyrazol-4-yl)-1H-pyrrolo[3,2-c]pyridin-6-ylamino)-N,N-dimethylbenzamide] as the compound, how does the IC50 read?
The IC50 was 0.047 µM.

With `COc1cc(F)ccc1Nc1cc2[nH]c(-c3cnn(C)c3)cc2cn1` [Example 157, N-(4-Fluoro-2-methoxyphenyl)-2-(1-methyl-1H-pyrazol-4-yl)-1H-pyrrolo[3,2-c]pyridin-6-amine] as the compound, how does the IC50 read?
Its IC50 is 0.119 µM.

How did the IC50 turn out when `Cc1ncc(-c2ccc(Nc3cc4[nH]c(-c5cnn(C)c5)cc4cn3)c(Cl)c2)n1C` [Example 152, N-(2-Chloro-4-(1,2-dimethyl-1H-imidazol-5-yl)phenyl)-2-(1-methyl-1H-pyrazol-4-yl)-1H-pyrrolo[3,2-c]pyridin-6-amine] was run?
Its IC50 is 0.005 µM.

Which IC50 does the source give for `COc1cc(-c2cnc(C)n2C)ccc1Nc1cc2c(cn1)cc(-c1cnn(C)c1)n2C(=O)OC(C)C` [Example 68] here?
The IC50 was 0.002 µM.

How did the IC50 turn out when `Cn1cncc1-c1ccc(Nc2cc3c(cn2)cc(-c2cnco2)n3C(=O)OC(C)(C)C)c(Cl)c1` [Example 91] was run?
Its IC50 is 0.006 µM.

With `CN(C)C(=O)c1ccc(Nc2cc3c(cn2)cc(-c2cnn(C)c2)n3S(=O)(=O)C2CCCC2)c(Cl)c1` [Example 110, 3-Chloro-4-(1-(cyclopentylsulfonyl)-2-(1-methyl-1H-pyrazol-4-yl)-1H-pyrrolo[3,2-c]pyridin-6-ylamino)-N,N-dimethylbenzamide] as the compound, how does the IC50 read?
The IC50 was 0.092 µM.

For `Cc1ncc(-c2ccc(Nc3cc4c(cn3)cc(-c3cnn(C)c3)n4CC3CC3)c(Cl)c2)n1C` [Example 105], which IC50 is on record?
The IC50 was 0.029 µM.

How did the IC50 turn out when `O=S1(=O)CCN(Cc2ccc(Nc3cc4[nH]c(-c5cn[nH]c5)cc4cn3)cc2)CC1` [Example 175, 2-(1H-Pyrazol-4-yl)-N-(4-(thiomorpholinomethyl)phenyl)-1H-pyrrolo[3,2-c]pyridin-6-amine-S,S-dioxide] was run?
Its IC50 is 0.004 µM.

For `COc1ccc(-c2ccc(Nc3cc4c(cn3)cc(-c3cnn(C)c3)n4C(=O)OC(C)(C)C)c(Cl)c2)cn1` [Example 48], which IC50 is on record?
The IC50 was 0.016 µM.

`Cc1ncn(C)c1-c1ccc(Nc2cc3c(cn2)cc(-c2cnn(C)c2)n3C(=O)OC(C)(C)C)c(Cl)c1` [Example 63] was tested. Which IC50 did it give?
The IC50 was 0.005 µM.

How did the IC50 turn out when `CN(C)C(=O)c1cc(Cl)c(Nc2cc3[nH]c(-c4cnn(C)c4)cc3cn2)c(Cl)c1` [Example 121, 3,5-Dichloro-N,N-dimethyl-4-(2-(1-methyl-1H-pyrazol-4-yl)-1H-pyrrolo[3,2-c]pyridin-6-ylamino)benzamide] was run?
The IC50 was 0.091 µM.

For `CN(C)C(=O)c1ccc(Nc2cc3c(cn2)cc(-c2cnn(C)c2)n3C(=O)OC(C)(C)C)c(OC(F)(F)F)c1` [Example 3], which IC50 is on record?
Its IC50 is 0.006 µM.

How did the IC50 turn out when `COCCOc1ccc(Nc2cc3[nH]c(-c4cn[nH]c4)cc3cn2)cc1` [Example 170, N-(4-(2-Methoxyethoxy)phenyl)-2-(1H-pyrazol-4-yl)-1H-pyrrolo[3,2-c]pyridin-6-amine] was run?
Its IC50 is 0.009 µM.

`COc1ccc(Nc2cc3c(cn2)cc(-c2cn[nH]c2)n3C)cc1OC` [Example 126, N-(3,4-dimethoxyphenyl)-1-methyl-2-(1H-pyrazol-4-yl)-1H-pyrrolo[3,2-c]pyridin-6-amine] was tested. Which IC50 did it give?
The IC50 was 0.026 µM.

Which IC50 does the source give for `Cc1ncc(-c2ccc(Nc3cc4c(cn3)cc(-c3cnn(C)c3)n4C(=O)OC3CCCC3)c(Cl)c2)n1C` [Example 84] here?
The IC50 was 0.002 µM.

For `CN(C)C(=O)c1ccc(Nc2cc3c(cn2)cc(-c2cnn(C)c2)n3-c2ncccn2)c(Cl)c1` [Example 93], which IC50 is on record?
The IC50 was 0.094 µM.

`Fc1ccc(Nc2cc3[nH]c(-c4cn[nH]c4)cc3cn2)cc1` [Example 188, N-(4-fluorophenyl)-2-(1H-pyrazol-4-yl)-1H-pyrrolo[3,2-c]pyridin-6-amine] was tested. Which IC50 did it give?
The IC50 was 0.14 µM.

How did the IC50 turn out when `Cc1ncc(-c2ccc(Nc3cc4c(cn3)cc(-c3cnn(C)c3)n4C(=O)OC3CCC3)c(Cl)c2)n1C` [Example 85] was run?
The IC50 was 0.004 µM.

How did the IC50 turn out when `CC(C)OC(=O)n1c(-c2cnn(C)c2)cc2cnc(Nc3ccc(C(=O)N(C)C)cc3Cl)cc21` [Example 77] was run?
Its IC50 is 0.006 µM.

How did the IC50 turn out when `Fc1ccc(Nc2cc3[nH]c(-c4cn[nH]c4)cc3cn2)nc1` [Example 189, N-(5-fluoropyridin-2-yl)-2-(1H-pyrazol-4-yl)-1H-pyrrolo[3,2-c]pyridin-6-amine] was run?
The IC50 was 0.159 µM.

With `Cn1cc(-c2ccc(Nc3cc4[nH]c(-c5cnn(C)c5)c(Cl)c4cn3)c(Cl)c2)cn1` [Example 194, 3-Chloro-N-(2-chloro-4-(1-methyl-1H-pyrazol-4-yl)phenyl)-2-(1-methyl-1H-pyrazol-4-yl)-1H-pyrrolo[3,2-c]pyridin-6-amine] as the compound, how does the IC50 read?
The IC50 was 0.128 µM.

Which IC50 does the source give for `Cc1nc(C)c(-c2ccc(Nc3cc4[nH]c(-c5cnn(C)c5)cc4cn3)c(Cl)c2)s1` [Example 150, N-(2-Chloro-4-(2,4-dimethylthiazol-5-yl)phenyl)-2-(1-methyl-1H-pyrazol-4-yl)-1H-pyrrolo[3,2-c]pyridin-6-amine] here?
Its IC50 is 0.114 µM.

For `Cn1cc(-c2cc3cnc(Nc4ccc(-c5ccnn5C)cc4Cl)cc3n2C(=O)OC(C)(C)C)cn1` [Example 44], which IC50 is on record?
Its IC50 is 0.019 µM.

How did the IC50 turn out when `COc1cc(CN2CCS(=O)(=O)CC2)ccc1Nc1cc2[nH]c(-c3cnn(C)c3)cc2cn1` [Example 116, N-(2-Methoxy-4-(thiomorpholinomethyl)phenyl)-2-(1-methyl-1H-pyrazol-4-yl)-1H-pyrrolo[3,2-c]pyridin-6-amine-S,S-dioxide] was run?
Its IC50 is 0.01 µM.

Which IC50 does the source give for `Cc1nc(C)c(-c2ccc(Nc3cc4c(cn3)cc(-c3cnn(C)c3)n4C(=O)OC(C)(C)C)c(Cl)c2)s1` [Example 45] here?
The IC50 was 0.052 µM.

Which IC50 does the source give for `Cn1cc(-c2cc3cnc(Nc4ccc(C(=O)N5CC(F)(F)C5)cc4Cl)cc3n2C(=O)OC(C)(C)C)cn1` [Example 50] here?
Its IC50 is 0.006 µM.

How did the IC50 turn out when `Cn1cc(-c2cc3cnc(Nc4ccc(-c5cncn5C)cc4Cl)cc3[nH]2)cn1` [Example 125, N-(2-Chloro-4-(1-methyl-1H-imidazol-5-yl)phenyl)-2-(1-methyl-1H-pyrazol-4-yl)-1H-pyrrolo[3,2-c]pyridin-6-amine] was run?
The IC50 was 0.004 µM.

With `CN1CCN(C(=O)c2ccc(Nc3cc4[nH]c(-c5cnn(C)c5)cc4cn3)c(Cl)c2)CC1` [Example 146, (3-Chloro-4-(2-(1-methyl-1H-pyrazol-4-yl)-1H-pyrrolo[3,2-c]pyridin-6-ylamino)phenyl)(4-methylpiperazin-1-yl) methanone] as the compound, how does the IC50 read?
Its IC50 is 0.02 µM.

Which IC50 does the source give for `COCCNC(=O)c1ccc(Nc2cc3[nH]c(-c4cnn(C)c4)cc3cn2)c(OC)c1` [Example 119, 3-Methoxy-N-(2-methoxyethyl)-4-(2-(1-methyl-1H-pyrazol-4-yl)-1H-pyrrolo[3,2-c]pyridin-6-ylamino)benzamide] here?
The IC50 was 0.019 µM.

`COc1cc(-c2ccc(Nc3cc4c(cn3)cc(-c3cnn(C)c3)n4C(=O)OC(C)(C)C)c(Cl)c2)ccn1` [Example 46] was tested. Which IC50 did it give?
The IC50 was 0.075 µM.

For `CN(C)C(=O)c1ccc(Nc2cc3[nH]c(-c4cnco4)cc3cn2)c(Cl)c1` [Example 180, 3-Chloro-N,N-dimethyl-4-(2-(oxazol-5-yl)-1H-pyrrolo[3,2-c]pyridin-6-ylamino)benzamide], which IC50 is on record?
The IC50 was 0.005 µM.

With `COc1ccc(Nc2cc3[nH]c(-c4cnn(Cc5cc(C)on5)c4)cc3cn2)c(OC)c1` [Example 173, N-(2,4-Dimethoxyphenyl)-2-(1-((5-methylisoxazol-3-yl)methyl)-1H-pyrazol-4-yl)-1H-pyrrolo[3,2-c]pyridin-6-amine] as the compound, how does the IC50 read?
Its IC50 is 0.207 µM.

`CNC(=O)c1ccc(Nc2cc3[nH]c(-c4cnn(C)c4)cc3cn2)c(Cl)c1` [Example 134, 3-Chloro-N-methyl-4-(2-(1-methyl-1H-pyrazol-4-yl)-1H-pyrrolo[3,2-c]pyridin-6-ylamino)benzamide] was tested. Which IC50 did it give?
The IC50 was 0.02 µM.

How did the IC50 turn out when `COc1cc(-c2cnn(C)c2)ccc1Nc1cc2c(cn1)cc(-c1cnn(C)c1)n2C(=O)OC(C)C` [Example 102] was run?
Its IC50 is 0.007 µM.

Which IC50 does the source give for `COc1cc(CN(C)C(=O)OC(C)(C)C)ccc1Nc1cc2c(cn1)cc(-c1cnn(C)c1)n2C(=O)OC(C)(C)C` [Example 34] here?
The IC50 was 0.111 µM.
